Reference: PubChem BioAssay (NCI)
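Cultured in 96-well plates, cells were exposed to test compound for 48 hours across five concentrations. At the TGI there is no net growth.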

Tests used:
Test in all cases: inhibition of tumour cell growth, NCI panel, 48 h
SK-MEL-2 melanoma = tested on: SK-MEL-2 melanoma
HCC-2998 colon = tested on: HCC-2998 colon
SNB-19 CNS = tested on: SNB-19 CNS
HCT-15 colon = tested on: HCT-15 colon
MDA-MB-231 breast = tested on: MDA-MB-231 breast
A498 renal = tested on: A498 renal
NCI-H23 lung = tested on: NCI-H23 lung
HCT-116 colon = tested on: HCT-116 colon
NCI/ADR-RES ovarian = tested on: NCI/ADR-RES ovarian
OVCAR-3 ovarian = tested on: OVCAR-3 ovarian
OVCAR-5 ovarian = tested on: OVCAR-5 ovarian
HT29 colon = tested on: HT29 colon
PC-3 prostate = tested on: PC-3 prostate
SF-539 CNS = tested on: SF-539 CNS
K-562 leukemia = tested on: K-562 leukemia
U251 CNS = tested on: U251 CNS
UO-31 renal = tested on: UO-31 renal
MCF7 breast = tested on: MCF7 breast
SW-620 colon = tested on: SW-620 colon
SK-MEL-5 melanoma = tested on: SK-MEL-5 melanoma
MDA-MB-435 = tested on: MDA-MB-435
KM12 colon = tested on: KM12 colon
NCI-H522 lung = tested on: NCI-H522 lung
ACHN renal = tested on: ACHN renal
SN12C renal = tested on: SN12C renal
MALME-3M melanoma = tested on: MALME-3M melanoma
EKVX NSCLC = tested on: EKVX NSCLC
NCI-H226 lung = tested on: NCI-H226 lung
SF-268 CNS = tested on: SF-268 CNS
COLO 205 colon = tested on: COLO 205 colon
LOX IMVI melanoma = tested on: LOX IMVI melanoma
DU-145 prostate = tested on: DU-145 prostate
SK-MEL-28 melanoma = tested on: SK-MEL-28 melanoma
RPMI-8226 leukemia = tested on: RPMI-8226 leukemia
M14 melanoma = tested on: M14 melanoma
TK-10 renal = tested on: TK-10 renal
OVCAR-4 ovarian = tested on: OVCAR-4 ovarian
SF-295 CNS = tested on: SF-295 CNS
MDA-N = tested on: MDA-N
OVCAR-8 ovarian = tested on: OVCAR-8 ovarian
A549 NSCLC = tested on: A549 NSCLC
HL-60(TB) leukemia = tested on: HL-60(TB) leukemia
CAKI-1 renal = tested on: CAKI-1 renal
NCI-H460 lung = tested on: NCI-H460 lung
T-47D breast = tested on: T-47D breast
HOP-62 NSCLC = tested on: HOP-62 NSCLC
RXF 393 renal = tested on: RXF 393 renal
SK-OV-3 ovarian = tested on: SK-OV-3 ovarian
MOLT-4 leukemia = tested on: MOLT-4 leukemia
CCRF-CEM leukemia = tested on: CCRF-CEM leukemia
UACC-62 melanoma = tested on: UACC-62 melanoma
IGROV1 ovarian = tested on: IGROV1 ovarian
HS 578T breast = tested on: HS 578T breast
SNB-75 CNS = tested on: SNB-75 CNS
SR leukemia = tested on: SR leukemia

**Q.** What does the source list for N#Cc1c(N)nc(Nc2cccc3ccccc23)c(C#N)c1C#N?
**A.** TGI (SK-MEL-2 melanoma): > 10 µM; TGI (HCC-2998 colon): > 10 µM; TGI (SNB-19 CNS): > 10 µM; TGI (HCT-15 colon): > 10 µM; TGI (MDA-MB-231 breast): > 10 µM; TGI (A498 renal): > 10 µM; TGI (NCI-H23 lung): > 10 µM; TGI (HCT-116 colon): > 10 µM; TGI (NCI/ADR-RES ovarian): > 10 µM; TGI (OVCAR-3 ovarian): 7.57 µM; TGI (OVCAR-5 ovarian): > 10 µM; TGI (HT29 colon): > 10 µM; TGI (PC-3 prostate): > 10 µM; TGI (SF-539 CNS): > 10 µM; TGI (K-562 leukemia): 9.64 µM; TGI (U251 CNS): > 10 µM; TGI (UO-31 renal): > 10 µM; TGI (MCF7 breast): > 10 µM; TGI (SW-620 colon): > 10 µM; TGI (SK-MEL-5 melanoma): > 10 µM; TGI (MDA-MB-435): > 10 µM; TGI (KM12 colon): > 10 µM; TGI (NCI-H522 lung): > 10 µM; TGI (ACHN renal): > 10 µM; TGI (SN12C renal): > 10 µM; TGI (MALME-3M melanoma): > 10 µM; TGI (EKVX NSCLC): > 10 µM; TGI (NCI-H226 lung): > 10 µM; TGI (SF-268 CNS): > 10 µM; TGI (COLO 205 colon): > 10 µM; TGI (LOX IMVI melanoma): 4.36 µM; TGI (DU-145 prostate): > 10 µM; TGI (SK-MEL-28 melanoma): > 10 µM; TGI (RPMI-8226 leukemia): 6.19 µM; TGI (M14 melanoma): > 10 µM; TGI (TK-10 renal): > 10 µM; TGI (OVCAR-4 ovarian): > 10 µM; TGI (SF-295 CNS): > 10 µM; TGI (MDA-N): 4 µM; TGI (OVCAR-8 ovarian): > 10 µM; TGI (A549 NSCLC): > 10 µM; TGI (HL-60(TB) leukemia): 4.77 µM; TGI (CAKI-1 renal): > 10 µM; TGI (NCI-H460 lung): > 10 µM; TGI (T-47D breast): > 10 µM; TGI (HOP-62 NSCLC): > 10 µM; TGI (RXF 393 renal): > 10 µM; TGI (SK-OV-3 ovarian): > 10 µM; TGI (MOLT-4 leukemia): 9.2 µM; TGI (CCRF-CEM leukemia): 6.05 µM; TGI (UACC-62 melanoma): > 10 µM; TGI (IGROV1 ovarian): > 10 µM; TGI (HS 578T breast): 8.7 µM; TGI (SNB-75 CNS): > 10 µM; TGI (SR leukemia): 9.29 µM
